Data: patent US4510144A, “Methods of imparting immunomodulating activity with dihydrothiazolo purine derivatives” (Newport Pharmaceuticals International, priority 1982, dated 1985)
“Also recorded” adds a separate entry of the source.

How the values were obtained:
[1] = system: splenocytes from athymic mice (theta positive cells); assay: induction of theta positive cells in splenocytes from athymic (nude) mice in vitro; type: cell-based; conditions: in vitro
Source text: (4) Induction of theta positive cells in nude mice (in vitro).

[2] = system: murine spleen cells, Con A induced (T-cells); assay: Con A induced lymphocyte proliferation in mouse spleen cells in vitro; type: cell-based, mouse (Balb/C); conditions: for activity at 25 µg/mL: drug 25,000 ng/ml; for effect on Con A induced proliferation (T-cell response), in words: in vitro
Source text: (§1) (1) Mitogen-(Lipopolysaccharide, LPS or Con A) induced lymphocyte proliferation using murine spleen cells (in vitro)
(§2) 1. […] LPS is a mitogen which acts preferentially on B-cells. […] Con A is considered a T-cell mitogen.
(§3) 1. Balb/C male mice, 7-8 weeks old, are used up to 20-24 weeks of age.
(§4) 2. The animals are sacrificed by cervical dislocation and the animals' left sides swabbed with 70% ethanol. An incision is made between the lower ribs and pelvis, laterally from front to back, and the skin retracted. Aseptic technique is to be observed from this point on.
(§5) 3. The spleen is gently removed with sterile forceps. […] When all spleens have been collected and cleaned they are placed in a second petri dish containing 3 ml cold RPMI.
(§6) 4. Spleen cell suspensions are prepared by gentle mincing of the tissue with a sterile blade and filtering through #100 stainless steel mesh.
(§7) 6. An aliquot of the above suspension is prepared for cell counting as follows: 0.1 ml of suspension is diluted to 1.0 ml with 3% acetic acid and let stand at room temperature for at least five minutes. The sample is then diluted 1:100 with "Isoton II" (Curtis-Matheson Co.) and counted in a coulter counter.
(§8) MURINE SPLENOCYTE STIMULATION WITH CONCANAVALIN A (CON A), LIPOPOLYSACCHARIDE (LPS), AND ALLOGENEIC SPLENOCYTES (LMC).
(§9) There is set forth below the standard procedure which should be modified according to the solubility and other properties of the particular compound tested.
(§10) Add ~10 ml RPMI to 1.79 g HEPES and vortex until completely dissolved. […] Allow to warm temperature before use.
5. Con A (Calbiochem)--100 mg/ml NaCl injection solution (McGaw), filter, aliquot in 1 ml, and store at -70° C.
(§11) 8. Tritiated thymidine (^3 H-TdR, Schwartz-Mann, 6 Ci/mM). Remove a slightly larger volume of ^3 H-TdR than needed from vial with a 1 cc syringe and place volume in the cap of a small sterile plastic tube. […] Vortex thoroughly before adding to plates.
(§12) 1. Animals are sacrificed by cervical dislocation killing one from each group and processing the cells individually before killing the next animal. Swab each animal with 70% ethanol before surgery. […] Use 8 vertical strokes (or enough to break up all tissue) with Teflon-tipped homogenizer. Filter each sample through a 100 mesh screen into a 50 ml tube. […] After all samples have been spun, vortex each briefly and let sit for 1 hour. Vortex each sample ~5 seconds, waiting ~10 seconds between each sample. Let sit 5 minutes, then pipet cell suspension into 5 ml (12×75 mm) tube being careful not to remove any sediment. Remove 50 ul cell suspension using micropipetter, carefully wipe pipet tip with kimwipe and pipet into 20 ml Isoton in Coulter counter vial, rinsing pipet several times in the Isoton. Add 6 drops of CyMet and swirl vial to mix. Use the following Coulter counter settings: Amplification-1, Threshold-10, and Aperture Current-1. Clean counter with Isoterge the morning of experiment and count background before standardizing with CH 0.60 Hematology Controls. After cell counts are obtained, dilute to 6×10^6 cells/ml with supplemented RPMI and aliquot into 3 tubes for the 3 assays.
(§13) 1. Pipet 100 μl control media (supplemented RPMI) or appropriate dilution of mitogen (starting with lowest concentration) into microtiter plate using Titertek multi-channel pipetter. Place plates in 37° C. CO2 incubator with CO2 set at 0.5 after each plate has been pipetted. Pipet 100 μl responder cells into wells starting with most dilute mitogen concentration. Place plates in incubator as they are filled and after all plates are in incubator, let sit for 10-20 minutes. Wrap plates with plastic wrap, recover with top, replace in incubator, and reset CO2 to ~0.05. Save ~50 ml supplemented RPMI at 4° C. for thymidine dilution. After ~44 hours warm the RPMI to 37° C. in incubator. Dilute tritiated Thymidine 1:100 in warmed RPMI. Use Titertek to add 50 μl Thymidine to each well. Treat plates as above and incubate overnight (~18 hours).

[3] = system: murine spleen cells, LPS induced (B-cells); assay: LPS induced lymphocyte proliferation in mouse spleen cells in vitro; type: cell-based, mouse (Balb/C); conditions: for activity at 25 µg/mL: drug 25,000 ng/ml; for effect on B-cell response / LPS induced proliferation, in words: in vitro
Source text: as §1, §2, §3, §4, §5, §6, §7, §8, §9, §10
6. LPS (Sigma, E, coli serotype #011:84)--~1 mg/ml. […] Remove ~10 ml for dissolving HEPES (0.358 g) and filter HEPES solution. Add four 25 mg bottles of LPS to remaining media and incubate at 37° C. for 1 hour. Filter through 0.22 μm filters, add filtered HEPES, aliquot in 2 ml and store at -70° C.
as §11, §12
as §13, with “dilution.” for “dilution. After ~44 hours warm the RPMI to 37° C. in incubator. Dilute tritiated Thymidine 1:100 in warmed RPMI. Use Titertek to add 50 μl Thymidine to each well. Treat plates as above and incubate overnight (~18 hours).”

[4] = system: antibody production to sheep red blood cells (SRBC); assay: antigen (SRBC) dependent antibody synthesis in vivo (IgM plaques); design: species or system Balb/C mice; conditions: for effect on antibody production in vivo, in words: SRBC immunized mice; for % change from control, antibody response to SRBC: Table X
Description: (3) Antigen (sheep red blood cell, SRBC) dependent antibody synthesis (in vivo)
as §9
1. A solution containing 500 μg/ml NPT is prepared by adding a preweighed amount of the drup powder to sterile BPS (phosphate buffered saline) and sonicating the solution for 30 minutes.
1. NPT drug solution is made by dissolving 500 μg NPT per mil PBS.
1. A 1.4% suspension of agarose in PBS (7 g in 500 ml) is autoclaved for 15 min.
1. Mice are immunized as follows: sheep blood (sheep #23) is received weekly from Hyland labs. It is asceptically collected in two volumes of Alseviers to one volume of blood.
6. The cell count is determined and the stock solution is diluted to 4×10^7 cells/ml. This final suspension is used for immunization.
7. Each mouse is immunized by i.v. injection into the lateral tail vein (warmed in a 50° C. water bath for veinous dilation) with 0.1 ml SRBC (sheep red blood cell) suspensions; the final concentration of SRBC's is 4×10^6 per mouse.
1. Mice are treated by i.p. injection on days […], 1, 2, and 3. A syringe (1 cc) is fitted with a one-half inch, 26 gauge needle. The needle is introduced at a 45° angle along the right side of the linea alba. A 0.2 ml volume is given to both drug and control treated groups.
2. Drug groups are given 0.2 ml of a desired concentration NPT solution which, for a 20 g mouse, is […].
1. Spleens are removed asceptically and placed individually in Falcon #2025 tissue culture tubes containing 3 ml MEM. The tubes are then stored on ice.
2. Spleens are homogenized in the same tube with a teflon pestle attached to a G. K. Heller variable speed reversible motor connected with a G. K. Heller GT-21 motor controller setting #6.
6. The cell count is obtained and the stock suspension is diluted to 1×10^7 cells/ml. The Coulter counter threshhold is set at 10. Red cells are lysed with three drops of Zap isoton.
1. Thirty-five hundredths gram agarose and 0.53 grams MEM powder are placed into an Erlenmeyer flask. Fifty ml of distilled H2 O is then added to the flask.
1. Five ml sheep blood (same batch as used for immunization) is washed three times in PBS using an IEC Clinical Standard Centrifuge, speed #4 (2800 RPM) for 10 min.
1. Agar plates are removed from refrigerator and allowed to warm to room temperature. They are labeled in triplicate for each experimental group.
2. Agar-filled tubes are removed from the water bath. One-tenth of the 10% SRBC's and 0.1 ml spleen cell suspension are added to each agar tube. The tubes are agitated on a Vortex mixer.
3. The contents of the tubes are poured immediately into agar base plates and swirled until a smooth layer is formed. The plates are placed on a level surface until the agar solidifies.
4. The plates are incubated at 37° C. in a humidified atmosphere of 5% CO2 and 95% air for 90 min.
6. Plates are removed from incubator and 1 ml of the diluted complement is added to each plate.
7. Plates are then incubated another 30-45 minutes at 37° C. Plates are then removed from incubator and counted using oblique light.

[5] = Mus musculus, Con A .375 μg/ml, read-out: Con A D/C (maximum values)
[6] = Mus musculus, B-cell, LPS 5 μg/ml, read-out: LPS D/C (maximum values)
[7] = 0.05 mg/kg, *P ≤ 0.001 where starred
[8] = 0.5 mg/kg, *P ≤ 0.001 where starred
[9] = 5.0 mg/kg, *P ≤ 0.001 where starred, NPT 16485 N.S.

| SMILES | activity at 25 µg/mL [2, 5] [%] | activity at 25 µg/mL [3, 6] [%] | effect on antibody production in vivo, in words [4] | % change from control, antibody response to SRBC [4, 7] | effect on B-cell response / LPS induced proliferation, in words [3] | % change from control, antibody response to SRBC [4, 8] | also measured |
| --- | --- | --- | --- | --- | --- | --- | --- |
| c1ccc([C@H]2CN3CCSC3=N2)cc1 [Levamisole, reference compound] |  |  |  |  |  |  | production of theta positive (T) cells, in words [1]: does not possess this property |
| Nc1ncnc2c1nc1n2CCS1 [NPT 16422, 3-amino-7,8-dihydrothiazolo-[3,2e]-purine] | 20 | 37 | capable of inhibiting |  |  |  | effect on Con A induced proliferation (T-cell response), in words [2]: potent inhibitors; also recorded: capable of inhibiting |
| CSc1ncnc2c1nc1n2CCS1 [NPT 16439, 3-methylmercapto-7,8-dihydrothiazolo-[3,2e]-purine] |  |  | potent inhibitor of antibody production | -40% |  |  | activity at 4.5 µg/mL ([2]; Mus musculus, drug 4,500 ng/ml, Con A .375 μg/ml, read-out: Con A D/C (maximum values)): 57%; effect on Con A induced proliferation (T-cell response), in words [2]: potent inhibitors; effect on Con A induced proliferation (T-cell response), in words ([2]; listed as 16439): capable of inhibiting; effect on Con A induced proliferation (T-cell response), in words ([2]; listed as Ib): inhibiting the T-cell response; activity at 4.5 µg/mL ([3]; Mus musculus, B-cell, drug 4,500 ng/ml, LPS 5 μg/ml, read-out: LPS D/C (maximum values)): 100%; effect on antibody production in vivo, in words ([4]; listed as 16439): capable of inhibiting; % change from control, antibody response to SRBC ([4]; dose = 0.2 mg/kg): -63% |
| O=c1c2nc3n(c2nc2n1CCS2)CCS3 [NPT 16449, 6-hydroxy-Bis-(3,4-dihydrothiazolo-8,9-dihydrothiazolo)-[3,2e-2,3f]purine] |  |  | enhancement of production of specific antibodies in vivo | +183% | enhance B-cell proliferation | +59% | activity at 21 µg/mL ([2]; Mus musculus, drug 21,000 ng/ml, Con A .375 μg/ml, read-out: Con A D/C (maximum values)): 100%; activity at 21 µg/mL ([3]; Mus musculus, B-cell, drug 21,000 ng/ml, LPS 5 μg/ml, read-out: LPS D/C (maximum values)): 157%; effect on B-cell response / LPS induced proliferation, in words ([3]; listed as IVa): stimulating the B-cell response |
| Oc1c2ncnc-2nc2n1CCS2 [NPT 16450, 6-hydroxy-7,8-dihydrothiazolo-[3,2a]-purine] | 107 | 118 |  | -64% |  | +15% | % change from control, antibody response to SRBC [4, 9]: +36% |
| CSc1nc(O)c2nc3n(c2n1)CCS3 [NPT 16472, 3-hydroxy-5-methylmercapto-7,8-dihydrothiazolo-[3,2e]-purine] |  |  |  |  | stimulating the B-cell response |  | activity at 0.01 µg/mL ([2]; Mus musculus, drug 10 ng/ml, Con A .375 μg/ml, read-out: Con A D/C (maximum values)): 100%; activity at 0.01 µg/mL ([3]; Mus musculus, B-cell, drug 10 ng/ml, LPS 5 μg/ml, read-out: LPS D/C (maximum values)): 131%; % change from control, antibody response to SRBC ([4]; dose = 0.035 mg/kg, P < 0.05): +13% |
| Oc1ncnc2nc3n(c12)CCS3 [NPT 16485, 6-hydroxy-7,8-dihydrothiazolo-[2,3f]-purine] | 118 | 185 | enhancement of production of specific antibodies in vivo | +28% | enhance B-cell proliferation | +134% | effect on B-cell response / LPS induced proliferation, in words ([3]; listed as IIa): stimulating the B-cell response; % change from control, antibody response to SRBC [4, 9]: +1.7% |
